Results published in patent publication US10520492B2, “Method of screening for candidate compounds for regulating melanogenesis or pigmentation” (CHANEL PARFUMS BEAUTE, priority 2013, dated 2019).
“Also recorded” adds a separate entry of the source.

Key:
[1] = system: primary melanocytes from a skin donor; test: Melanosome immunostaining in primary melanocytes from donor; type: cell-based, human; conditions: OAG-treated vs control primary melanocytes, FIG. 1A
Procedure: (§1) The human melanoma G361 were bought from Cell Resource Center for Biomedical Research, Tohoku University, Japan and were cultured in DMEM (Dulbecco's Modified Eagle's Medium, Invitrogen) supplemented with 10% fetal bovine serum in a humidified incubator (37° C. and 5% CO2). Human primary melanocytes from the light and dark skin donors were bought from ScienCell Research Laboratories and were cultured in the recommended melanocyte growth medium. Cells were transfected with the expression plasmids coding for either mortalin or HSP60 protein using Fugene (Roche) as per recommended protocol. Typically 3-5 μg of plasmid DNA was used for 6 cms culture dish at 70-80% confluency. Cells were incubated with the plasmids for 48 hrs after which cells were harvested and examined for the expression indicated genes by protocols as described below. For shRNA transfections, Oligofectamine™ Transfection Reagent (Life Technologies™) was used as per manufacturer's instructions. Transfected cells were incubated with medium supplemented with puromycin (1 ug/ml) for 24-48 hrs and were then processed for assays as described below.
(§2) Cells were cultured and treated on glass coverslips placed in 12-well culture dish. […]

[2] = system: human melanoma cells G361; test: Melanosome immunostaining in G361 cells; type: cell-based; conditions: OAG-treated vs control G361 cells, FIG. 1B
Procedure: as §1, §2

G361 cells = test: Melanin content in G361 cells; type: cell-based, human; conditions: for OAG-induced melanin content: OAG-treated G361 cells, recovery with test substance
Procedure: Cells were treated with Di-acyl glycerol (OAG, 20 μg/ml) for 24 h followed by recovery either in the normal medium as described below or Vitamin C (0.1-0.3 mM) for 24 to 48 hrs.
(§3) G361 cells were cultured overnight and allowed to adhere to the surface well after which they were treated with TXC supplemented medium or OAG as described below followed by recovery in the TXC medium at doses indicated in the data figs.
Cells were plated in 96 well plates and allowed to attach well to the surface of the plate for 24 hours followed by transfections and treatments as described above and indicated in the figure legends. Cells were washed with PBS. Potassium hydroxide (KOH-0.85 N, 100 μl) was added to each. The plates were shaken gently in dark for overnight. Absorbance of the pigment was measured at 405 nm. Melanin content was calculated by using standard purified melanin (Sigma).

tyrosinase [3] = test: Western blotting of tyrosinase in G361 cells; type: cell-based, human
Procedure: (§4) Cells were grown and treated in 6-well plates. After transfections or drug treatments as described above, the cells were lysed with RIPA lysis buffer. Cell lysate (30 μg) was resolved on SDS-PAGE followed by transfer onto a nitrocellulose membrane (Millipore) using a semidry transfer blotter. Immunoassays were done with anti-mortalin, anti-HSP70 and anti-tyrosinase antibodies. The immunocomplexes formed were visualized with horseradish peroxidase-conjugated anti-rabbit/mouse immunoglobulin G. The bands were detected by LAS 3000 mini (FujiFilm).

tyrosinase [4] = test: Tyrosinase ELISA (tyrosinase activity assay) in G361 cells; type: cell-based, human
Procedure: Cells (Approximately 10000 cells/well) were plated in 96 well Nunc-Immuno maxisorp plates. At about 70% confluency, cells were transfected with shRNA plasmids (100 ng/well) as described above. After 24 hrs post-transfection, the cells were selected in puromycin-supplemented medium and were then processed for tyrosinase ELISA as described below. Cells were washed with PBS twice and were lysed in RIPA lysis buffer (Santa Cruz Biotechnology). Protein concentrations of the lysates were determined (Pierce BCA Protein Assay kit, Thermo Scientific) and the samples were diluted to 1 ug/ul concentration in coating buffer (0.1 M Sodium bicarbonate, 0.02% Sodium Azide pH-9.6). 5 μg of the protein sample was added to each well in a final volume of 100 μl of the coating buffer. The plates were gently shaken for 10 min and were then securely sealed and left for 2 hrs at room temperature. The solution was discarded and the plates were washed with washing buffer (PBS-0.5% TWEEN® 20, which is polysorbate 20) for 5 min. Blocking buffer (200 ul) was added to each well and the plates were incubated for 2 hours at room temperature followed by washings with the Washing buffer twice (3 min each). Anti-tyrosinase antibody (50 μl, 5 μg/ml in the blocking buffer) was added to each well and the plated were sealed and kept at room temperature for 1-2 hrs followed by washings with the washing buffer (3×10 min). The plates were incubated with the secondary antibody (Alkaline phosphatase, AP-Goat anti Rabbit IgG) for 1 hr and were then washed with the washing buffer for 3-5 times. The 100 μl of the substrate for AP (Nitrophenyl Phosphate, Disodium Salt, PNPP) was added to each well. Plates were again sealed and left for 30 min followed by measuring the absorbance at 405 nm that represented the quantitative estimation of tyrosinase expression.

Hsp60 [5] = test: Immunostaining of Hsp60 upon OAG induction; type: cell-based, human; conditions: induction of melanogenesis by OAG, FIG. 4
Procedure: (§5) Cells were cultured and treated on glass coverslips placed in 12-well culture dish. At the end of the treatment as described above, coverslips were washed with cold phosphate-buffered saline (PBS) and the cells were fixed with pre-chilled methanol:acetone (1:1 v/v) mixture for 5-10 min. Fixed cells were washed with PBS, permeabilized with 0.2% TRITON™ X-100 (4-(1,1,3,3-Tetramethylbutyl)phenyl-polyethylene glycol) in PBS for 10 min, and blocked with 2% bovine serum albumin (BSA) in PBS for 20 min. Cells were stained with anti-mortalin, anti-HSP60, anti-tyrosinase and anti-melanosome antibodies. Immunostaining was visualized by secondary staining with Alexa-488 or Alexa-594 conjugated antibodies (Molecular probes). After three to four washings with 0.2% TRITON™ X-100 in PBS (PBST), cells were overlaid with Fluoromount (Difco). The cells were examined with Carl Zeiss microscope with epifluorescence optics.

mortalin [6] = test: Immunostaining of mortalin upon OAG induction; type: cell-based, human; conditions: induction of melanogenesis by OAG, FIG. 5
Procedure: as §5

mortalin [7] = test: Mortalin expression (immunoblotting) in G361 cells; type: cell-based, human
Procedure: as §3, §4

Hsp60 [8] = test: Hsp60 expression in G361 cells; type: cell-based, human; conditions: FIG. 13B, Hydrochloride Salt

Structure (SMILES): CCCCCCCC/C=C\CCCCCCCC(=O)OC[C@H](CO)OC(C)=O [OAG, 1-oleoyl-2-acetyl-sn-glycero]
- melanosome production [1]: induced
- melanosome production [2]: induced
- melanin content (G361 cells; G361 cells treated with OAG, FIG. 2): Increase
- tyrosinase expression (tyrosinase [3]; OAG-treated G361 cells, FIG. 3A): increase
- tyrosinase activity (tyrosinase [4]; OAG-treated G361 cells, FIG. 3B): increase
- Hsp60 level (immunostaining) (Hsp60 [5]): upregulation
- mortalin level (immunostaining) (mortalin [6]): upregulation
- mortalin expression (mortalin [7]; G361 cells treated with OAG, FIG. 13C): Increase

Structure (SMILES): CCCCCCCCCCCCCCCCOC(=O)C1CCC(CN)CC1.Cl (centres unmarked) [TXC, Cetyl Tranexamate Hydrochloride Salt]
- OAG-induced melanin content (G361 cells): reduction
- endogenous melanin (G361 cells; OAG-untreated G361 cells): reduction
- endogenous expression of tyrosinase (tyrosinase [3]; G361 cells, FIG. 13A, Hydrochloride Salt): Reduction; also recorded: decreases
- OAG-induced tyrosinase activity (tyrosinase [4]; OAG-treated G361 cells, TXC at various concentrations, FIG. 12): reduction
- endogenous expression of Hsp60 (Hsp60 [8]): Reduction; also recorded: decreases
- OAG-induced expression of Mortalin (mortalin [7]; G361 cells treated with OAG, then recovery in presence of test substance, Hydrochloride Salt): reduction; also recorded: decrease
- endogenous expression of Mortalin (mortalin [7]; G361 cells, FIG. 13, Hydrochloride Salt): reduction; also recorded: decreases

Structure (SMILES): O=C1O[C@H]([C@@H](O)CO)C(O)=C1O [Vitamin C]
- OAG-induced melanin content (G361 cells): reduction
- OAG-induced tyrosinase (tyrosinase [4]; OAG-treated G361 cells then Vitamin C, FIG. 3): decrease
